Measured values published in patent publication US11299524B2, “KIF13B-derived peptide and method of inhibiting angiogenesis” (THE BOARD OF TRUSTEES OF THE UNIVERSITY OF ILLINOIS, priority 2016, dated 2022).

System: HUVECs
Assay: fibrin gel sprouting assay (3-dimensional culture of HUVECs on beads)
Assay type: cell-based, human
Settings: 1 μmol/L, VEGF-induced EC sprouting
Method: Collagen invasion assay was performed as previously described (Kang, et al. (2011) J. Biol. Chem. 286:42017-26). In vitro capillary network formation on […] (BD Biosciences, San Jose, Calif.) and scratch wound healing assay were performed as previously described (Humtsoe, et al. (2010) Mol. Cell Biol. 30:1593-1606). Fibrin gel sprouting assay was performed as described by Nakatsu & Hughes ((2008) Methods Enzymol. 443:65-82). VEGF (2.2 nmol/L) stimulation was used for all in vitro angiogenesis assays. Transwell migration assay was performed as described by Kaplan, et al. ((2011) Free Radical Res. 45:1124-35) using VEGF (4.4 nmol/L), sphingosine-1-phosphate (S1P) (1 μmol/L), or basic fibroblast growth factor (bFGF) (50 ng/mL) in the presence or absence of kinesin-derived angiogenesis inhibitor (DUF2C5; residues 1238-1260 of KIF13B) at varying concentrations.
Changes in VEGF-induced network formation assay were assessed in […] plugs. […] VEGF-induced EC sprouting was also determined by 3-dimensional culture of HUVECs on beads (Nakatsu & Hughes (2008) Methods Enzymol. 443:65-82).

CT23: negative control, C-terminal 23-amino acid peptide, residues 1650 to 1672 of KIF13B (RVRASELRSFSRMLAGDPGCSPG)
number of branching point structures per bead: 4-6 branches
number of sprouts per bead: 13-16 sprouts
